Measured values published in patent publication EP0641797A1, “Cephem derivatives and antimicrobial agents containing the same” (KATAYAMA SEIYAKUSYO CO. Ltd., priority 1993, dated 1995).
Values after ≈ are worked out from the molar mass of the structure shown.

Assays:
Assay in all cases: MIC on standard strains, standard method of Japan Society of Chemotherapy
Assay type in all cases: cell-based
P. mirabilis IFO 3849 = conditions: Proteus mirabilis, IFO3849, P. mirabilis IFO 3849; read-out: MIC
Procedure: (§1) Antimicrobial activity of the compounds of the present invention were measured using CTM (cefotiam) and FMOX (flomoxef) as control drugs in accordance with the standard method of Japan Society of Chemotherapy. Of the 25 standard strains used in this test, Staphylococcus aureus 167 and Staphylococcus aureus 195 belong to MRSA.
(§2) In these tables, drugs tested are shown by the corresponding examples in which they were synthesized.

E. cloacae ATCC 13407 = conditions: Enterobacter cloacae, ATCC13407, E. cloacae ATCC 13407; read-out: MIC
Procedure: as §1, §2

K. pneuminiae No. 42 = test system: K. pneuminiae No. 42
Procedure: as §1, §2

P. cepacia = conditions: Burkholderia cepacia, read-out: MIC
Procedure: as §1, §2

S. aureus 209p JC-1 = conditions: Staphylococcus aureus, 209P, read-out: MIC
Procedure: as §1, §2

E. cloacae Nek39 = conditions: Enterobacter cloacae, NEK39, E. cloacae Nek39; read-out: MIC
Procedure: as §1, §2

M. luteus ATCC 9341 = conditions: Micrococcus luteus, ATCC9341
Procedure: as §1, §2

S. marcescens No. 16-2 = conditions: Serratia marcescens, NO.162
Procedure: as §1, §2

S. aureus 167 = conditions: Staphylococcus aureus; S. aureus 167 (MRSA)
Procedure: as §1, §2

S. aureus Smith = conditions: Staphylococcus aureus, read-out: MIC
Procedure: as §1, §2

A. faecalis ATCC 3750 = conditions: Alcaligenes faecalis, ATCC3750, A. faecalis ATCC 3750; read-out: MIC
Procedure: as §1, §2

E. coli NHIJ JC-2 = conditions: Escherichia coli, NHIJJC2
Procedure: as §1, §2

P. aeruginosa AKR17 = conditions: Pseudomonas aeruginosa
Procedure: as §1, §2

P. aeruginosa NCTC 10490 = conditions: Pseudomonas aeruginosa, NCTC10490, P. aeruginosa NCTC 10490; read-out: MIC
Procedure: as §1, §2

M. morganii IFO 3848 = conditions: Morganella morganii, IFO3848
Procedure: as §1, §2

B. subtilis ATCC 6633 = conditions: Bacillus subtilis, ATCC6633, B. subtilis ATCC 6633; read-out: MIC
Procedure: as §1, §2

E. coli CSH2(RK1) = conditions: Escherichia coli
Procedure: as §1, §2

K. pneuminiae IFO 3317 = test system: K. pneuminiae IFO 3317
Procedure: as §1, §2

A. calcoaceticos T59 = conditions: read-out: MIC
Procedure: as §1, §2

C. freundii ATCC 8090 = conditions: Citrobacter freundii, ATCC8090, C. freundii ATCC 8090; read-out: MIC
Procedure: as §1, §2

S. epidemidis IAM 1296 = test system: S. epidemidis IAM 1296
Procedure: as §1, §2

E. coli CSH2(RE45) = conditions: Escherichia coli
Procedure: as §1, §2

S. marcescens IAM 1184 = conditions: Serratia marcescens, IAM1184, S. marcescens IAM 1184; read-out: MIC
Procedure: as §1, §2

S. aureus 195 = conditions: Staphylococcus aureus; S. aureus 195 (MRSA)
Procedure: as §1, §2

P. vulugaris OX-19 = test system: P. vulugaris OX-19
Procedure: as §1, §2

| Compound | MIC (P. mirabilis IFO 3849) [µg/mL] | MIC (E. cloacae ATCC 13407) [µg/mL] | MIC (K. pneuminiae No. 42) [µg/mL] | MIC (P. cepacia) [µg/mL] | MIC (S. aureus 209p JC-1) [µg/mL] | MIC (E. cloacae Nek39) [µg/mL] | MIC (M. luteus ATCC 9341) [µg/mL] | MIC (S. marcescens No. 16-2) [µg/mL] | MIC (S. aureus 167) [µg/mL] | MIC (S. aureus Smith) [µg/mL] | MIC (A. faecalis ATCC 3750) [µg/mL] | MIC (E. coli NHIJ JC-2) [µg/mL] | MIC (P. aeruginosa AKR17) [µg/mL] | MIC (P. aeruginosa NCTC 10490) [µg/mL] | MIC (M. morganii IFO 3848) [µg/mL] | MIC (B. subtilis ATCC 6633) [µg/mL] | MIC (E. coli CSH2(RK1)) [µg/mL] | MIC (K. pneuminiae IFO 3317) [µg/mL] | MIC (A. calcoaceticos T59) [µg/mL] | MIC (C. freundii ATCC 8090) [µg/mL] | other results |
| --- | --- | --- | --- | --- | --- | --- | --- | --- | --- | --- | --- | --- | --- | --- | --- | --- | --- | --- | --- | --- | --- |
| Nc1nc(/C(=N/O)C(=O)N[C@@H]2C(=O)N3C(C(=O)[O-])=C(C[n+]4ccc(-c5nsc(N)n5)cc4)CS[C@H]23)cs1 [Ex. 11, 7β-[2-(2-aminothiazol-4-yl)-2-syn-hydroxyiminoacetamido]-3-[4-(5-amino-1,2,4-thiadiazol-3-yl)pyridinio]methyl-3-cephem-4-carboxylate] | 0.2 (≈ 0.357 µM) | 6.25 (≈ 11.2 µM) | 0.39 (≈ 0.697 µM) | > 100 | 0.1 (≈ 0.179 µM) | > 100 | 0.05 (≈ 0.0893 µM) | 100 (≈ 179 µM) | 6.25 (≈ 11.2 µM) | 0.1 (≈ 0.179 µM) | 1.56 (≈ 2.79 µM) | 0.1 (≈ 0.179 µM) | > 100 | 3.13 (≈ 5.59 µM) | 0.05 (≈ 0.0893 µM) | 0.1 (≈ 0.179 µM) | 0.39 (≈ 0.697 µM) | 0.1 (≈ 0.179 µM) | 25 (≈ 44.7 µM) | 0.2 (≈ 0.357 µM) | MIC (S. epidemidis IAM 1296): 0.05 µg/mL (≈ 0.0893 µM); MIC (E. coli CSH2(RE45)): 0.2 µg/mL (≈ 0.357 µM); MIC (S. marcescens IAM 1184): 0.39 µg/mL (≈ 0.697 µM); MIC (S. aureus 195): 1.56 µg/mL (≈ 2.79 µM); MIC (P. vulugaris OX-19): 0.1 µg/mL (≈ 0.179 µM) |
| NC(=NO)c1ccc[n+](CC2=C(C(=O)[O-])N3C(=O)[C@@H](NC(=O)/C(=N\O)c4csc(N)n4)[C@H]3SC2)c1 [Ex. 19, 7β-[2-(2-aminothiazol-4-yl)-2-syn-hydroxyiminoacetamido]-3-[3-(1-amino-1-hydroxyiminomethyl)pyridinio]methyl-3-cephem-4-carboxylate] | 0.39 (≈ 0.752 µM) | 3.13 (≈ 6.04 µM) | 0.78 (≈ 1.5 µM) | > 100 | 0.2 (≈ 0.386 µM) | 50 (≈ 96.4 µM) | 0.1 (≈ 0.193 µM) | 100 (≈ 193 µM) | 6.25 (≈ 12.1 µM) | 0.39 (≈ 0.752 µM) | 3.18 (≈ 6.13 µM) | 0.39 (≈ 0.752 µM) | > 100 | 3.13 (≈ 6.04 µM) | 0.2 (≈ 0.386 µM) | 0.39 (≈ 0.752 µM) | 0.78 (≈ 1.5 µM) | 0.2 (≈ 0.386 µM) | 6.25 (≈ 12.1 µM) | 0.39 (≈ 0.752 µM) | MIC (S. epidemidis IAM 1296): 0.1 µg/mL (≈ 0.193 µM); MIC (E. coli CSH2(RE45)): 0.39 µg/mL (≈ 0.752 µM); MIC (S. marcescens IAM 1184): 0.2 µg/mL (≈ 0.386 µM); MIC (S. aureus 195): 1.56 µg/mL (≈ 3.01 µM); MIC (P. vulugaris OX-19): 0.39 µg/mL (≈ 0.752 µM) |
| Nc1nc(-c2ccc[n+](CC3=C(C(=O)[O-])N4C(=O)[C@@H](NC(=O)/C(=N\O)c5csc(N)n5)[C@H]4SC3)c2)no1 [Ex. 14, 7β-[2-(2-aminothiazol-4-yl)-2-syn-hydroxyiminoacetamido)-3-[3-(5-amino-1,2,4-oxadiazol-3-yl)pyridinio]methyl-3-cephem-4-carboxylate] | 0.39 (≈ 0.718 µM) | 3.13 (≈ 5.76 µM) | 0.78 (≈ 1.44 µM) | > 100 | 0.2 (≈ 0.368 µM) | 100 (≈ 184 µM) | 0.05 (≈ 0.092 µM) | > 100 | 12.5 (≈ 23 µM) | 0.39 (≈ 0.718 µM) | 3.13 (≈ 5.76 µM) | 0.39 (≈ 0.718 µM) | > 100 | 3.13 (≈ 5.76 µM) | 0.2 (≈ 0.368 µM) | 0.2 (≈ 0.368 µM) | 0.78 (≈ 1.44 µM) | 0.39 (≈ 0.718 µM) | 12.5 (≈ 23 µM) | 0.2 (≈ 0.368 µM) | MIC (S. epidemidis IAM 1296): 0.1 µg/mL (≈ 0.184 µM); MIC (E. coli CSH2(RE45)): 0.39 µg/mL (≈ 0.718 µM); MIC (S. marcescens IAM 1184): 0.78 µg/mL (≈ 1.44 µM); MIC (S. aureus 195): 6.25 µg/mL (≈ 11.5 µM); MIC (P. vulugaris OX-19): 0.39 µg/mL (≈ 0.718 µM) |
| Nc1nc(/C(=N/O)C(=O)N[C@@H]2C(=O)N3C(C(=O)[O-])=C(C[n+]4cccc(-c5ncno5)c4)CS[C@H]23)ns1 [Ex. 5, 7β-[2-(5-amino-1,2,4-thiadiazol-3-yl)-2-syn-hydroxyiminoacetamido]-3-[3-(1,2,4-oxadiazol-5-yl)pyridinio]methyl-3-cephem-4-carboxylate] | 3.13 (≈ 5.91 µM) | 25 (≈ 47.2 µM) | 6.25 (≈ 11.8 µM) | > 100 | 1.56 (≈ 2.95 µM) | 100 (≈ 189 µM) | 0.39 (≈ 0.737 µM) | > 100 | 50 (≈ 94.4 µM) | 3.13 (≈ 5.91 µM) | 12.5 (≈ 23.6 µM) | 6.25 (≈ 11.8 µM) | > 100 | 3.13 (≈ 5.91 µM) | 3.13 (≈ 5.91 µM) | 0.78 (≈ 1.47 µM) | 12.5 (≈ 23.6 µM) | 3.13 (≈ 5.91 µM) | 12.5 (≈ 23.6 µM) | 6.25 (≈ 11.8 µM) | MIC (S. epidemidis IAM 1296): 0.78 µg/mL (≈ 1.47 µM); MIC (E. coli CSH2(RE45)): 6.25 µg/mL (≈ 11.8 µM); MIC (S. marcescens IAM 1184): 6.25 µg/mL (≈ 11.8 µM); MIC (S. aureus 195): 50 µg/mL (≈ 94.4 µM); MIC (P. vulugaris OX-19): 6.25 µg/mL (≈ 11.8 µM) |
